These molecules were tested against T1, apelin receptor (APJ) (Homo sapiens, UniProt P35414) (assay: in vitro apelin agonist activity (methods of Giddings et al., Apelin-13 as positive control)). Details: not given.
T1 sequence (P35414 1-380): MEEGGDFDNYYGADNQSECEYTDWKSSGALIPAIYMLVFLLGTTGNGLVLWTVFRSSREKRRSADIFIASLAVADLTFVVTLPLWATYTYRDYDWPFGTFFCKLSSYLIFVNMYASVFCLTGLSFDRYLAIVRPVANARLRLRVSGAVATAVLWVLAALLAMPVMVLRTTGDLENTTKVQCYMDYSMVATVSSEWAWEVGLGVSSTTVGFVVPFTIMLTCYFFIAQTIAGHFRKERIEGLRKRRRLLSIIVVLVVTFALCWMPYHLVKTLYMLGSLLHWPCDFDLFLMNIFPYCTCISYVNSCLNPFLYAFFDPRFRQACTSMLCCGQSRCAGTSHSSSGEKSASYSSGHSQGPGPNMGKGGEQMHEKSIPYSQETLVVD
Assay type: cell-based
Text: The compounds above were studied for their in vitro activity as apelin agonists using the methods described by Giddings et al. Giddings et al., 2010 Int J High Thro Screen. 1:39-47, the contents of which are hereby incorporated by reference in its entirety.

Row | Molecule | EC50
1 | COc1cccc(OC)c1-c1cc(C(=O)N[C@@H](CC(C)C)C(=O)O)nn1-c1ccc(F)cc1 [compound 34] | < 10 µM
2 | COc1cccc(OC)c1-c1cc(C(=O)N[C@H](C(=O)NCC(=O)O)C2CCCCC2)nn1-c1ccc(F)cc1 [compound 70] | < 10 µM
3 | COc1cccc(OC)c1-c1cc(C(=O)N[C@H](C(=O)O)C2CCCCC2)nn1C1CCCCC1 [compound 93, (S)-2-Cyclohexyl-2-(1-cyclohexyl-5-(2,6-dimethoxyphenyl)-1H-pyrazole-3-carboxamido)acetic acid] | < 10 µM

Same assay, conditions: apelin agonist activity, Giddings et al. method; read-out: agonist activity (EC50)

Row | Molecule | EC50
4 | COc1cccc(OC)c1-c1cc(C(=O)N[C@H](CC(=O)O)CC(C)C)nn1-c1ccc(F)cc1 [compound 56, (S)-3-(5-(2,6-Dimethoxyphenyl)-1-(4-fluorophenyl)-1H-pyrazole-3-carboxamido)-5-methylhexanoic acid] | < 10 µM
5 | COc1cccc(OC)c1-c1cc(C(=O)N[C@H](CC(N)=O)CC(C)C)nn1-c1ccc(F)cc1 [compound 65] | < 10 µM
6 | COc1cccc(OC)c1-c1cc(C(=O)N[C@@H](CC(=O)O)CC(C)C)nn1-c1ccc(F)cc1 [compound 67] | < 10 µM
7 | COc1cccc(OC)c1-c1cc(C(=O)N[C@H](CC(=O)O)CC(C)C)nn1C1CCCCC1 [compound 79, (S)-3-(1-Cyclohexyl-5-(2,6-dimethoxyphenyl)-1H-pyrazole-3-carboxamido)-5-methylhexanoic acid] | < 10 µM
8 | COC(=O)COc1cccc(OC)c1-c1cc(C(=O)N[C@H](CC(=O)O)CC(C)C)nn1-c1ccc(F)cc1 [compound 86] | < 10 µM
9 | COC(=O)CNC(=O)C[C@H](CC(C)C)NC(=O)c1cc(-c2c(OC)cccc2OC)n(CC(C)C)n1 [compound 130, (S)-Methyl 2-(3-(5-(2,6-dimethoxyphenyl)-1-isobutyl-1H-pyrazole-3-carboxamido)-5-methylhexanamido)acetate] | < 10 µM
10 | CCCCNC(=O)C[C@H](CC(C)C)NC(=O)c1cc(-c2c(OC)cccc2OCc2ccccc2)n(C2CCCCC2)n1 [compound 133, 5-(2-(Benzyloxy)-6-methoxyphenyl)-N-((S)-1-(butylamino)-5-methyl-1-oxohexan-3-yl)-1-cyclohexyl-1H-pyrazole-3-carboxamide] | < 10 µM
11 | CCOC(=O)CCNC(=O)C[C@H](CC(C)C)NC(=O)c1cc(-c2c(OC)cccc2OCc2ccccc2)n(C2CCCCC2)n1 [compound 138, Ethyl 3-((3S)-3-(5-(2-(benzyloxy)-6-methoxyphenyl)-1-cyclohexyl-1H-pyrazole-3-carboxamido)-5-methylhexanamido)propanoate] | < 10 µM
12 | COc1cccc(OC)c1-c1cc(C(=O)N[C@H](CC(=O)NCc2ncco2)CC(C)C)nn1CC(C)C [compound 140, (S)-5-(2,6-Dimethoxyphenyl)-1-isobutyl-N-(5-methyl-1-((oxazol-2-ylmethyl)amino)-1-oxohexan-3-yl)-1H-pyrazole-3-carboxamide] | < 10 µM
13 | CNC(=O)C[C@H](CC(C)C)NC(=O)c1cc(-c2c(OC)cccc2OC)n(CC(C)C)n1 [compound 141, (S)-5-(2,6-Dimethoxyphenyl)-1-isobutyl-N-(5-methyl-1-(methylamino)-1-oxohexan-3-yl)-1H-pyrazole-3-carboxamide] | < 10 µM
14 | COc1cccc(OC)c1-c1cc(C(=O)N[C@H](CC(=O)NCCO)CC(C)C)nn1CC(C)C [compound 142, (S)-5-(2,6-Dimethoxyphenyl)-N-(1-((2-hydroxyethyl)amino)-5-methyl-1-oxohexan-3-yl)-1-isobutyl-1H-pyrazole-3-carboxamide] | < 10 µM
15 | CCCCCCNC(=O)C[C@H](CC(C)C)NC(=O)c1cc(-c2c(OC)cccc2OC)n(CC(C)C)n1 [compound 154, (S)-5-(2,6-Dimethoxyphenyl)-N-(1-(hexylamino)-5-methyl-1-oxohexan-3-yl)-1-isobutyl-1H-pyrazole-3-carboxamide] | < 10 µM

Second part, the molecule after the results:

Row | EC50 | Molecule
16 | < 10 µM | COc1cccc(OC)c1-c1cc(C(=O)N[C@H](C(=O)O)C2CCCCC2)nn1-c1ccc(F)cc1 [compound 71, (S)-2-Cyclohexyl-2-(5-(2,6-dimethoxyphenyl)-1-(4-fluorophenyl)-1H-pyrazole-3-carboxamido)acetic acid]
17 | < 10 µM | COc1cccc(OC)c1-c1cc(C(=O)N[C@H](CC(=O)NCC(=O)O)CC(C)C)nn1-c1ccc(F)cc1 [compound 77, (S)-2-(3-(5-(2,6-Dimethoxyphenyl)-1-(4-fluorophenyl)-1H-pyrazole-3-carboxamido)-5-methylhexanamido)acetic acid]
18 | < 10 µM | COc1cccc(OC)c1-c1cc(C(=O)N[C@H](CC(=O)NCC(=O)O)CC(C)C)nn1C1CCCCC1 [compound 81, (S)-2-(3-(1-Cyclohexyl-5-(2,6-dimethoxyphenyl)-1H-pyrazole-3-carboxamido)-5-methylhexanamido)acetic acid]
19 | < 10 µM | COc1cccc(OCc2ccccc2)c1-c1cc(C(=O)N[C@H](CC(=O)O)CC(C)C)nn1-c1ccc(F)cc1 [compound 82, (3S)-3-(5-(2-(Benzyloxy)-6-methoxyphenyl)-1-(4-fluorophenyl)-1H-pyrazole-3-carboxamido)-5-methylhexanoic acid]
20 | < 10 µM | COc1cccc(OC)c1-c1cc(C(=O)N[C@H](CC(=O)O)CC(C)C)nn1CC1CCCCC1 [compound 95, (S)-3-(1-(Cyclohexylmethyl)-5-(2,6-dimethoxyphenyl)-1H-pyrazole-3-carboxamido)-5-methylhexanoic acid]
21 | < 10 µM | COC(=O)CNC(=O)C[C@H](CC(C)C)NC(=O)c1cc(-c2c(OC)cccc2OC)n(C2CCCCC2)n1 [compound 103, (S)-Methyl 2-(3-(1-cyclohexyl-5-(2,6-dimethoxyphenyl)-1H-pyrazole-3-carboxamido)-5-methylhexanamido)acetate]
22 | < 10 µM | COc1cccc(OC)c1-c1cc(C(=O)N[C@H](CC(=O)O)CC(C)C)nn1CC(C)C [compound 118]
23 | < 10 µM | COc1cccc(OCc2ccccc2)c1-c1cc(C(=O)N[C@H](CC(=O)O)CC(C)C)nn1C1CCCCC1 [compound 126, (3S)-3-(5-(2-(Benzyloxy)-6-methoxyphenyl)-1-cyclohexyl-1H-pyrazole-3-carboxamido)-5-methylhexanoic acid]
24 | < 10 µM | COC(=O)CNC(=O)C[C@H](CC(C)C)NC(=O)c1cc(-c2c(OC)cccc2OCc2ccccc2)n(C2CCCCC2)n1 [compound 127, Methyl 2-((3S)-3-(5-(2-(benzyloxy)-6-methoxyphenyl)-1-cyclohexyl-1H-pyrazole-3-carboxamido)-5-methylhexanamido)acetate]
25 | < 10 µM | COc1cccc(OCc2ccccc2)c1-c1cc(C(=O)N[C@H](CC(=O)NCC(=O)O)CC(C)C)nn1C1CCCCC1 [compound 129, 2-((3S)-3-(5-(2-(Benzyloxy)-6-methoxyphenyl)-1-cyclohexyl-1H-pyrazole-3-carboxamido)-5-methylhexanamido)acetic acid]
26 | < 10 µM | COc1cccc(OCc2ccccc2)c1-c1cc(C(=O)N[C@H](CC(=O)NCc2ccccc2)CC(C)C)nn1C1CCCCC1 [compound 132]
27 | < 10 µM | COc1cccc(OCc2ccccc2)c1-c1cc(C(=O)N[C@H](CC(=O)NCc2ncco2)CC(C)C)nn1C1CCCCC1 [compound 134, 5-(2-(Benzyloxy)-6-methoxyphenyl)-1-cyclohexyl-N-((S)-5-methyl-1-((oxazol-2-ylmethyl)amino)-1-oxohexan-3-yl)-1H-pyrazole-3-carboxamide]
28 | < 10 µM | COc1cccc(OCc2ccccc2)c1-c1cc(C(=O)N[C@H](CC(=O)NCC(=O)N(C)C)CC(C)C)nn1C1CCCCC1 [compound 136, 5-(2-(Benzyloxy)-6-methoxyphenyl)-1-cyclohexyl-N-((S)-1-((2-(dimethylamino)-2-oxoethyl)amino)-5-methyl-1-oxohexan-3-yl)-1H-pyrazole-3-carboxamide]
29 | < 10 µM | COC(=O)CNC(=O)C[C@H](CC(C)C)NC(=O)c1cc(-c2c(OC)cccc2OC)n(-c2ccc(F)cc2)n1 [compound 137]
30 | < 10 µM | CCCCNC(=O)C[C@@H](CC(C)C)NC(=O)c1cc(-c2c(OC)cccc2OC)n(CC(C)C)n1 [compound 153]

Each molecule was assayed on C57BL/6 mice (assay: in vivo blood pressure lowering activity, non-invasive blood pressure and heart rate after IP injection). Details: Apelin-13 at 0.4 nmol/kg.
Experimental: The compounds were also assayed for blood pressure activity using C57BL/6 mice and the procedure described by Tatemoto et al. The novel peptide apelin lowers blood pressure via a nitric oxide-dependent mechanism. Regul Pept. 2001; 99: 87-92. […] Studies have been published citing reductions in blood pressure occur following peptide apelin administration. Apelin-13 was used as a positive control. Knockout C57BL/6 mice lacking APJ have cardiovascular deficiencies. […] Charo et al. Am J Physiol Heart Circ Physiol. 2009 November 297(5):[…] et al. J Physiol Biochem. 2007 December; 63(4):359-73. Blood pressure measurements in these species of mice have been reported in the literature. […] et al. Am J Physiol Heart Circ Physiol. 2003 February; 284(2):[…]-74. On the first day of the study, 11 animals were treated with apelin-13, 11 with vehicle alone, and 11 as sham controls. The two later groups were used to determine effects (if any) of the vehicle or injection alone on blood pressure (BP). The experiment was conducted as follows: The animals were restrained and a baseline measurement taken for 5 min. Animals were injected and immediately monitored for 15 minutes. The effect of test agents should be apparent within this time. Tatemoto et al. reported that the effects of Apelin-13 were apparent within minutes. Tatemoto et al. 2001 Immediately following dosing, blood pressure (diastolic, systolic and mean pressure) and heart rate for each animal was recorded for up to 15 minutes using a Kent Scientific CODA Non-Invasive Blood Pressure System. […] On day 2-5 a similar protocol was used in increasing doses. The animals were randomized daily in three groups of 11 to receive either of the two experimental compounds by IP injection. […] At the end of the 5-day dosing period, all animals were humanely euthanized. [table]

Row | Molecule | lowers blood pressure by
31 | Apelin-13 [reference compound] | ~10%

From US10377718B2, “Apelin receptor (APJ) agonists and uses thereof” (Research Triangle Institute, priority 2014, dated 2019)
